Laboratory results from patent publication US12448371B2, “Inhibitor compounds” (Cincera Therapeutics Pty Ltd, priority 2019, dated 2025).
Read-outs that look alike come from different tables or passages of the source.

Tests used:
Des1 (h) = molecular target: T1, Des1 (h) (Homo sapiens, UniProt O15121); assay: Measurement of Dihydroceramide Desaturase-1 (Des-1) activity in intact Jurkat cells labeled with DhCer-C6-NBD (HPLC); type: cell-based
T1 construct: endogenous in cells; host or cells: parental Jurkat cells
T1 sequence (O15121 1-323): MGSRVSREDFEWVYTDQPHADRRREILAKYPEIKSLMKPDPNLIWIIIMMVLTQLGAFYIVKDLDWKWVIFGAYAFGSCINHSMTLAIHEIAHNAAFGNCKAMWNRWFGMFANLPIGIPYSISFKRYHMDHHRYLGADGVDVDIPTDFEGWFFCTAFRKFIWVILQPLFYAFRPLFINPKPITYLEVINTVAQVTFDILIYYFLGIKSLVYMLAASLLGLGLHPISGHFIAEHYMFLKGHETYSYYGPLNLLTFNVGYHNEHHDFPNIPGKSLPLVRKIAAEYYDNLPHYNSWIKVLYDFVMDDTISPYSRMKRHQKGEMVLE
How it was run: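 Intact parental Jurkat cells in 0.5% serum medium were labelled with DhCer-C6-NBD; cells harvested at 500×g and ceramides extracted. NBD-labelled substrate and product resolved by C18 reverse-phase HPLC and quantified by fluorescence (ex 465/em 530 nm) as a measure of Des-1 activity.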

[1] = T1/2 Human Liver Microsomes; type: in vitro ADME
Description: Some non-limiting illustrative examples are presented below in Table 3-1.

[2] = test system: Connective Tissue Growth Factor (CTGF) gene expression; assay: Real time quantitative PCR in TGFβ-stimulated human hepatic stellate cells (LX2) to detect CTGF gene expression; type: cell-based; details: CTGF mRNA in TGFβ-stimulated LX2 cells vs vehicle control; for inhibition at 5 µM: LX-2, 5 μM
Experimental: Real Time Quantitative Polymerase Chain Reaction in Human Hepatic Stellate Cells (LX2) to Detect Connective Tissue Growth Factor (CTGF) Gene Expression The hepatic stellate cell line, LX2 was maintained in DMEM (LifeTechnologies) with 2% heat-inactivated FBS, 100U penicillin (LifeTechnologies), 0.1 mg/mL streptomycin (LifeTechnologies), and 2 mM L-glutamine (LifeTechnologies) at 37° C. with 5% CO2. Cells were seeded into 6-well plates (200,000 cells per well, 2 mLs media) and grown overnight. The cells were changed to 2 mLs 0.5% FBS media for 24 hours prior to treatment. Treatments were added in 2 mLs fresh 0.5% FBS media (vehicle control, long/mL TGFβ alone (R&D Systems), 10 ng/mL TGFβ+inhibitors) and incubated for 24 hours. […] RNA was extracted using Qiagen RNeasy kit (cat #74104), according to manufacturer's instructions. RNA (1 μg) was used to generate cDNA using the Qiagen Quantitect Reverse Transcription Kit (cat #205311), and stored at -20° C. cDNA was diluted (1:25 final) and combined with Sybr Green (Qiagen cat #204143), forward and reverse primers (50 ng each) and run on Real Time PCR Thermocycler machine (RG-6000, Corbett) with the following PCR conditions: Hold 1: 50° C. for 2 min; Hold 2: 95° C. for 15 min; Cycling: 45 cycles of: 95° C. for 30 sec, 58° C. for 21 sec, 72° C. for 15 sec, Hold 3: 72° C. for 30 sec, Melt: 72° C. to 99° C. GAPDH primers (Forward: [NT]; Reverse: [NT] primers (Forward: [NT]; Reverse: [NT] primers available from Origene, cat #HP205671)].

[3] = test system: TGF-β1-mediated αSMA expression; assay: Fibroblast-to-Myofibroblast Transition (FMT) in human lung cells derived from IPF patient donors; type: cell-based; details: primary human bronchial fibroblasts from IPF donors; 8 concentrations up to 10 μM; FIG. 2
Experimental: Fibroblast-to-Myofibroblast Transition (FMT) in Human Lung Cells Derived from Idiopathic Pulmonary Fibrosis (IPF) Patient Donors
Lung-derived primary human bronchial fibroblasts (from IPF donors) were seeded at 3,000 cells per well in 96-well plates, and were grown over 5 days prior to treatment with the desired compounds (cell medium was refreshed at 48 h). Cells were then treated with 8 different concentrations of Compound 8 or 46, in semi-log dilutions starting from the top dosage of 10 μM (vehicle control: 0.1% DMSO; positive control: SB525334 and nintendanib). 1-hour post compound addition, the cells were stimulated with the addition of 1.25 ng/mL TGF-β1, and incubated for 72 hours. Cells were then fixed with 4% formaldehyde, then stained using […] and imaged via high-content analysis. The assay was conducted in biological duplicates. This in vitro FMT assay results were provided by Charles River Laboratories through a service agreement.

[4] = Table 3-1, comparison of W ring with and without nitrogen, read-out: Des1 IC50
[5] = intact Jurkat cells, given as concentration range, or <X / >X if measured at one concentration X only, read-out: Des1 (h) Jurkat IC50

SMILES | IC50 (Des1 (h); [4]) | half-life [1] | IC50 (Des1 (h); [5]) | inhibition at 5 µM [2] | other results
O=C(NCC(O)CO)c1ccc(Nc2ncc(-c3ccc(C(F)(F)F)cc3)o2)cn1 (stereo not drawn) | 1 to 10 nM | 3.5 to 3.67 h | – | – | –
N=C(NO)c1ccc(Nc2ncc(-c3ccc(C(F)(F)F)cc3)o2)cn1 [Example 8, 5-((5-[4-(Trifluoromethyl)phenyl]-1,3-oxazol-2-yl)amino)-N-hydroxy-pyridine-2-carboximidamide] | – | – | 100 to 1000 nM | > 90% | inhibition of TGF-β1-mediated αSMA expression in IPF donors [3]: concentration-dependent inhibition
N=C(NO)c1ccc(Nc2ncc(-c3ccc(C(F)(F)F)cc3)o2)cc1 | 800 to 1000 nM | 0.5 to 0.667 h | – | – | –
N/C(=N/O)c1ccc(Nc2cn(-c3ccc(C(F)(F)F)cn3)nn2)cn1 [Compound 115, N′-Hydroxy-5-((1-(5-(trifluoromethyl)pyridin-2-yl)-1H-1,2,3-triazol-4-yl)amino)picolinimidamide] | – | – | < 1000 nM | > 90% | –
N/C(=N\O)c1ccc(Nc2cnn(-c3ccc(C(F)(F)F)cc3)c2)cn1 [Compound 113, N′-Hydroxy-5-((1-(4-(trifluoromethyl)phenyl)-1H-pyrazol-4-yl)amino)picolinimidamide] | – | – | < 1000 nM | > 90% | –
N/C(=N/O)c1cnc(Nc2ncc(-c3ccc(Cl)cn3)o2)cn1 [Compound 102, 5-((5-(5-Chloropyridin-2-yl)oxazol-2-yl)amino)-N′-hydroxypyrazine-2-carboximidamide] | – | – | < 1000 nM | 70 to 80% | –
Cn1nc(Nc2ccc(/C(N)=N/O)nc2)cc1-c1ccc(C(F)(F)F)cn1 [Compound 109, N′-Hydroxy-5-((1-methyl-5-(5-(trifluoromethyl)pyridin-2-yl)-1H-pyrazol-3-yl)amino)picolinimidamide] | – | – | < 1000 nM | > 90% | –

The next lines start with results.

IC50 (Des1 (h); [4]) | half-life [1] | IC50 (Des1 (h); [5]) | SMILES | inhibition at 5 µM [2] | other results
1 to 10 nM | 2.5 to 2.83 h | – | N/C(=N\O)c1ccc(Nc2ncc(-c3ccc(C(F)(F)F)cc3)o2)nn1 [drawing 418] | – | –
– | – | 100 to 1000 nM | N=C(NO)c1ccc(Nc2ncc(-c3ccc(C(F)(F)F)cn3)o2)cn1 [Example 46, N′-hydroxy-5-((5-(5-(trifluoromethyl)pyridin-2-yl)oxazol-2-yl)amino)-picolinimidamide] | > 90% | inhibition of TGF-β1-mediated αSMA expression in IPF donors [3]: concentration-dependent inhibition
400 to 500 nM | 3.17 to 3.33 h | – | N=C(NO)c1ccc(Nc2ncc(-c3ccc(C(F)(F)F)cn3)o2)cn1 [drawing 417] | – | –
100 to 200 nM | 1.5 to 1.67 h | – | N=C(NO)c1ccc(Nc2ncc(-c3ccc(C(F)(F)F)cc3)o2)cn1 [drawing 414] | – | –
– | – | 10 to 100 nM | N/C(=N\O)c1ccc(Nc2ncn(-c3ccc(C(F)(F)F)cc3)n2)cn1 [Example 24, N′-Hydroxy-5-((1-(4-(trifluoromethyl)phenyl)-1H-1,2,4-triazol-3yl)amino)picolinimidamide] | 50 to 60% | –
70 to 80 nM | 2.83 to 3 h | – | N/C(=N\O)c1ccc(Nc2ncn(-c3ccc(C(F)(F)F)cc3)n2)cn1 [drawing 416] | – | –
– | – | < 1000 nM | N/C(=N\O)c1ccc(Nc2nc(-c3ccc(C(F)(F)F)cc3)no2)cn1 [Example 82, N′-hydroxy-5-((3-(4-(trifluoromethyl)phenyl)-1,2,4-oxadiazol-5-yl)amino)picolinimidamide] | > 90% | –
– | – | < 1000 nM | N/C(=N\O)c1cnc(Nc2ncc(-c3ccc(C(F)(F)F)cn3)o2)cn1 [Example 57, N′-Hydroxy-5-((5-(5-(trifluoromethyl)pyridin-2-yl)oxazol-2-yl)amino)pyrazine-2-carboximidamide] | – | inhibition at 1 µM ([2]; LX-2, 1 μM): 1 to 10%; inhibition at 10 µM ([2]; LX-2, 10 μM): 50 to 60%
